Assays:
[1] = tested on: genes involved in hepatic thyroid hormone conjugation and transport; assay: RTQ-PCR of thyroid hormone metabolism genes in liver of TCPOBOP-treated mice; type: in vivo, mouse; conditions: 1 mg/kg i.p.
[2] = tested on: mouse sulfotransferase genes; assay: Northern blot analysis of sulfotransferase mRNAs in liver of TCPOBOP-treated mice; type: in vivo; conditions: 1 mg/kg i.p.
[3] = tested on: mouse liver genes differentially expressed in response to CAR activation; assay: Affymetrix GeneChip analysis of mouse liver genes differentially expressed after TCPOBOP treatment; type: in vivo
Experimental: A global analysis of mouse liver genes differentially expressed in response to CAR activation was performed. Changes in mRNA steady state levels were assessed using AFFYMETRIX® chip technology. AFFYMETRIX® GeneChip murine genome assays (Mu11k set), representing greater than 13,000 full-length genes and EST clusters, were used. The primary sequence sources for this set were combined Unigene and TIGR databases. […] TCPOBOP is a potent and selective activator of mouse CAR and a useful chemical tool for in vivo differential gene expression studies.
(§1) In these experiments, three mice were treated with 1 mg/kg TCPOBOP in 5% dimethyl sulfoxide (DMSO) and corn oil, intraperitoneally. Control mice (n—3) received vehicle alone. Each mouse received two injections at 24 hour intervals. Livers were harvested after the second injection. Thus, total treatment time was 28 hours. Total mRNA was isolated from the livers using the Trizol method and probes for hybridization to the Affymetrix chips were prepared from the total mRNA. Results were analyzed by Affymetrix microarray Suite version 4.0 software.

T4 = conditions: rats; TCPOBOP at high doses; cited from earlier work
[4] = tested on: mouse sulfotransferase genes; assay: Effect of TCPOBOP on expression of the known mouse sulfotransferase genes (method not specified); type: in vivo; conditions: mice, liver
Experimental: as §1
Since sulfotransferase activity is important in thyroid metabolism, the effect of TCPOBOP on expression of all of the known mouse sulfotransferase genes was examined. The sulfotransferase set examined included N-SULT, SULT-X1, SULT-X2, aryl sulfotransferase, phenyl sulfotransferase, hydroxysteroid sulfotransferase, SULT-B1, and SUTL1E1. Three of these eight sulfotransferase genes were induced by TCPOBOP. […] Sulfotransferase activity coupled with deiodinase type I activity caused an increased proportion of T4 to be converted to rT3 rather than T3.
The expression of several genes examined in the TCPOBOP study was also examined. Of the sulfotransferase genes, SULT-X1, N-SULT, SULT 1E1, SULT 1B1 and aryl sulfotransferase were examined.

[5] = mice, 1 mg/kg i.p., two injections, liver, 28 hours, Affymetrix chip data

Question: Which results are given for `Clc1cnc(Oc2ccc(Oc3ncc(Cl)cc3Cl)cc2)c(Cl)c1` [TCPOBOP, 1,4-bis-[2,-(3,5-dichloropyridyloxy)] benzene]?
Answer: expression of the basolateral transporter mrp3 [1]: increased the expression; GST mu1-1 increase ([1]; RTQ-PCR): 2.7 fold; GST mu5-5 increase ([1]; RTQ-PCR): 4.7 fold; GST theta 1-1 increase ([1]; RTQ-PCR): 2.7 fold; GST-Y increase ([1]; RTQ-PCR): 7.5 fold; SULT-X2 increase ([1]; RTQ-PCR): 30 fold; UDP-glucuronysyl transferase 1A1 increase ([1]; RTQ-PCR): 1.6 fold; N-SULT increase [2]: 11.5 fold; SULT-X1 increase [2]: 10.0 fold; number of genes (of more than 13,000) displaying a 2-fold or greater change in expression ([3]; mice, 1 mg/kg i.p., two injections at 24 hour intervals, liver, total treatment time 28 hours): 264 genes; CYP2B10 mRNA upregulation in expression [3, 5]: 40 fold; CYP3A1 mRNA upregulation in expression [3, 5]: 20 fold; decrease in the gene encoding the Na+/K+ transporting ATPase [3, 5]: greater than 2 fold; activation of the CAR nuclear receptor ([3]; mouse liver, in vivo differential gene expression study): Selective and potent activation; circulating levels of T4 (T4): decreased circulating levels of T4; glucuronidation of T4 (T4): increase in glucuronidation of T4; SULT-1B1 mRNA induction [4]: not induced; SULT-1E1 mRNA induction [4]: not induced; aryl sulfotransferase mRNA induction [4]: not induced

From patent US20050106635A1, “Compositions and methods for regulating thyroid hormone metabolism and cholesterol and lipid metabolism via the nuclear receptor car” (priority 2002, published 2005)
